{"source": "patent US9334264B2", "about": "“NAMPT inhibitors” (AbbVie Inc., priority 2012, dated 2016)", "key": {"[1]": {"target": "NAMPT (human, recombinant, C-terminally His-tagged) (Homo sapiens, UniProt P43490)", "sequence (P43490 whole entry)": "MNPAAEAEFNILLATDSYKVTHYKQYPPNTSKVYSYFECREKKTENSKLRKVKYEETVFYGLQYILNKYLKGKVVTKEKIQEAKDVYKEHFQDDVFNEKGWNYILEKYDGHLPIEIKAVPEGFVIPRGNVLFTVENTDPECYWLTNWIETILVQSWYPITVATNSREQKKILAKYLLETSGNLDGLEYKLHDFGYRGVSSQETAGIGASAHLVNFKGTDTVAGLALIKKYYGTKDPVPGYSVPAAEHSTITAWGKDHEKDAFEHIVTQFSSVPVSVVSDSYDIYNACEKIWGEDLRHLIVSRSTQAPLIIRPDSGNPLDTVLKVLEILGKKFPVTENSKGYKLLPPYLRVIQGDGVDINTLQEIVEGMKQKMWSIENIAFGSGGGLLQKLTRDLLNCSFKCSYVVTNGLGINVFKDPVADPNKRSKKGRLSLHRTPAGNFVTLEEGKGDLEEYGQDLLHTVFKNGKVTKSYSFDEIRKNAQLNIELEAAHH", "experiment": "Time-Resolved Fluorescence Resonance Energy Transfer (TR-FRET) Binding Assay of NAMPT", "details": "absence of substrates; 6.8 nM NAMPT, 200 nM probe, equilibrated 3 hours", "protocol": "Determination of the utility of compounds having Formula (I) as binders to and inhibitors of NAMPT was performed using Time-Resolved Fluorescence Resonance Energy Transfer (TR-FRET) binding assays.\nTime-Resolved Fluorescence Resonance Energy Transfer (TR-FRET) Binding Assay of NAMPT\nTest compounds were serially diluted (typically 11 half log dilutions) in neat DMSO to 50× final concentrations prior to dilution with assay buffer (50 mM HEPES (NaOH), pH 7.5, 100 mM NaCl, 10 mM MgCl2, 1 mM DTT, 1% Glycerol) to 3× and 6% DMSO. Six μL were transferred to 384-well low-volume plates (Owens Corning #3673). To this, 12 μL of a 1.5× solution containing enzyme, probe and antibody were added. Final concentrations in the 18 μL reactions were 1× assay buffer, 2% DMSO, 6.8 nM NAMPT (human, recombinant, C-terminally His-tagged), 200 nM probe (a potent nicotinamide-competitive inhibitor conjugated to Oregon Green 488) and 1 nM Tb-anti-His antibody (Invitrogen #PV5895). Reactions were equilibrated at room temperature for 3 hours prior to reading on an Envision multi-label plate reader (Perkin Elmer; Ex=337 nm, Em=520 and 495 nm). Time-resolved FRET ratios (Em520/Em495) were normalized to controls, plotted as a function of compound concentration and fit with the four-parameter logistic equation to determine IC50s."}, "NAMPT": {"target": "NAMPT (Homo sapiens, UniProt P43490)", "sequence (P43490 whole entry)": "as above", "experiment": "Time-Resolved Fluorescence Resonance Energy Transfer (TR-FRET) Binding Assay of NAMPT with PRPP", "details": "200 μM PRPP and 2.5 mM ATP; 2 nM NAMPT, 2 nM probe, equilibrated 16 hours", "protocol": "Time-Resolved Fluorescence Resonance Energy Transfer (TR-FRET) Binding Assay of NAMPT with PRPP\nCompound handling and data processing were identical to the assay in the absence of substrates (above). Final concentrations were 1× assay buffer, 2% DMSO, 2 nM NAMPT, 2 nM probe, 1 nM Tb-anti-His antibody (Invitrogen #PV5895), 200 μM PRPP and 2.5 mM ATP. Reactions were equilibrated for 16 hours prior to measurement to allow for potential enzymatic modification of test compounds."}}, "note": "pIC50: −log10 of the molar value.", "data": [{"smiles": "CC(C)C(CC(=O)O)NC(=O)N(Cc1ccc(C#N)cc1)c1ncc(C(=O)NCCCn2ccnc2)s1", "note": "(centres unmarked) [Example 168, 3-{[(4-cyanobenzyl)(5-{[3-(1H-imidazol-1-yl)propyl]carbamoyl}-1,3-thiazol-2-yl)carbamoyl]amino}-4-methylpentanoic acid]", "values": [{"measurement": "pIC50", "setting": "[1]", "value": "< 5.00"}, {"measurement": "pIC50", "setting": "NAMPT", "value": 5.86}]}, {"smiles": "COCCC(=O)N(Cc1cnn(C)c1)c1ncc(C(=O)NCCCn2ccnc2)s1", "note": "[Example 111, N-[3-(1H-imidazol-1-yl)propyl]-2-{(3-methoxypropanoyl)[(1-methyl-1H-pyrazol-4-yl)methyl]amino}-1,3-thiazole-5-carboxamide]", "values": [{"measurement": "pIC50", "setting": "[1]", "value": "< 5.00"}, {"measurement": "pIC50", "setting": "NAMPT", "value": 8.23}]}, {"smiles": "N#Cc1ccc(CN(C(=O)NCCC(=O)O)c2ncc(C(=O)NCCCn3ccnc3)s2)cc1", "note": "[Example 171, N-[(4-cyanobenzyl)(5-{[3-(1H-imidazol-1-yl)propyl]carbamoyl}-1,3-thiazol-2-yl)carbamoyl]-beta-alanine]", "values": [{"measurement": "pIC50", "setting": "[1]", "value": 5.06}, {"measurement": "pIC50", "setting": "NAMPT", "value": 7.49}]}, {"smiles": "CC(C)N1CCN(CCN(Cc2ccc(F)cc2)c2ncc(C(=O)NCCCn3ccnc3)s2)CC1", "note": "[Example 10, 2-[(4-fluorobenzyl){2-[4-(propan-2-yl)piperazin-1-yl]ethyl}amino]-N-[3-(1H-imidazol-1-yl)propyl]-1,3-thiazole-5-carboxamide]", "values": [{"measurement": "pIC50", "setting": "[1]", "value": 6.55}, {"measurement": "pIC50", "setting": "NAMPT", "value": 7.71}]}, {"smiles": "O=C(NCCCn1ccnc1)c1cnc(N(Cc2ccc(F)cc2)C(=O)CN2CCN3CCCC3C2)s1", "note": "(centres unmarked) [Example 33, 2-[(4-fluorobenzyl)(hexahydropyrrolo[1,2-a]pyrazin-2(1H)-ylacetyl)amino]-N-[3-(1H-imidazol-1-yl)propyl]-1,3-thiazole-5-carboxamide]", "values": [{"measurement": "pIC50", "setting": "[1]", "value": 5.05}, {"measurement": "pIC50", "setting": "NAMPT", "value": 8.91}]}, {"smiles": "CC(C)(CNC(=O)N(Cc1ccc(C#N)cc1)c1ncc(C(=O)NCCCn2ccnc2)s1)C(=O)O", "note": "[Example 169, 3-{[(4-cyanobenzyl)(5-{[3-(1H-imidazol-1-yl)propyl]carbamoyl}-1,3-thiazol-2-yl)carbamoyl]amino}-2,2-dimethylpropanoic acid]", "values": [{"measurement": "pIC50", "setting": "[1]", "value": 5.07}, {"measurement": "pIC50", "setting": "NAMPT", "value": 6.58}]}, {"smiles": "COCCC(=O)N(CCN1CCOC1=O)c1ncc(C(=O)NCCCn2ccnc2)s1", "note": "[Example 198, N-[3-(1H-imidazol-1-yl)propyl]-2-{(3-methoxypropanoyl)[2-(2-oxo-1,3-oxazolidin-3-yl)ethyl]amino}-1,3-thiazole-5-carboxamide]", "values": [{"measurement": "pIC50", "setting": "[1]", "value": 5.58}, {"measurement": "pIC50", "setting": "NAMPT", "value": 9.20}]}, {"smiles": "CC(C)CC(=O)N(Cc1ccc(C#N)cc1)c1ncc(C(=O)NCCCn2ccnc2)s1", "note": "[Example 50, 2-[(4-cyanobenzyl)(3-methylbutanoyl)amino]-N-[3-(1H-imidazol-1-yl)propyl]-1,3-thiazole-5-carboxamide]", "values": [{"measurement": "pIC50", "setting": "[1]", "value": 5.93}, {"measurement": "pIC50", "setting": "NAMPT", "value": 8.60}]}, {"smiles": "O=C(NCCCn1ccnc1)c1cnc(N(Cc2ccc(F)cc2)C(=O)CN2CCN(CC3CC3)CC2)s1", "note": "[Example 34, 2-[{[4-(cyclopropylmethyl)piperazin-1-yl]acetyl}(4-fluorobenzyl)amino]-N-[3-(1H-imidazol-1-yl)propyl]-1,3-thiazole-5-carboxamide]", "values": [{"measurement": "pIC50", "setting": "[1]", "value": 5.12}, {"measurement": "pIC50", "setting": "NAMPT", "value": 9.30}]}, {"smiles": "COCC(COC)NC(=O)N(Cc1ccc(F)cc1)c1ncc(C(=O)NCCCn2ccnc2)s1", "note": "[Example 89, 2-{[(1,3-dimethoxypropan-2-yl)carbamoyl](4-fluorobenzyl)amino}-N-[3-(1H-imidazol-1-yl)propyl]-1,3-thiazole-5-carboxamide]", "values": [{"measurement": "pIC50", "setting": "[1]", "value": 5.23}, {"measurement": "pIC50", "setting": "NAMPT", "value": 8.70}]}, {"smiles": "COCCC(=O)N(Cc1ccc(C#N)cc1)c1ncc(C(=O)NCCCn2ccnc2)s1", "note": "[Example 62, 2-[(4-cyanobenzyl)(3-methoxypropanoyl)amino]-N-[3-(1H-imidazol-1-yl)propyl]-1,3-thiazole-5-carboxamide]", "values": [{"measurement": "pIC50", "setting": "[1]", "value": 6.09}, {"measurement": "pIC50", "setting": "NAMPT", "value": 8.97}]}, {"smiles": "CC(C)OCCNC(=O)N(Cc1ccc(F)cc1)c1ncc(C(=O)NCCCn2ccnc2)s1", "note": "[Example 87, 2-[(4-fluorobenzyl){[2-(propan-2-yloxy)ethyl]carbamoyl}amino]-N-[3-(1H-imidazol-1-yl)propyl]-1,3-thiazole-5-carboxamide]", "values": [{"measurement": "pIC50", "setting": "[1]", "value": 5.65}, {"measurement": "pIC50", "setting": "NAMPT", "value": 8.90}]}, {"smiles": "COCCN(C(=O)CCc1cccnc1)c1ncc(C(=O)NCCCn2ccnc2)s1", "note": "[Example 183, N-[3-(1H-imidazol-1-yl)propyl]-2-{(2-methoxyethyl)[3-(pyridin-3-yl)propanoyl]amino}-1,3-thiazole-5-carboxamide]", "values": [{"measurement": "pIC50", "setting": "[1]", "value": 5.53}, {"measurement": "pIC50", "setting": "NAMPT", "value": 9.55}]}, {"smiles": "COCCCNC(=O)N(Cc1ccc(C#N)cc1)c1ncc(C(=O)NCCCn2ccnc2)s1", "note": "[Example 166, 2-{(4-cyanobenzyl)[(3-methoxypropyl)carbamoyl]amino}-N-[3-(1H-imidazol-1-yl)propyl]-1,3-thiazole-5-carboxamide]", "values": [{"measurement": "pIC50", "setting": "[1]", "value": "< 5.00"}, {"measurement": "pIC50", "setting": "NAMPT", "value": 6.20}]}, {"smiles": "COCC(C)NC(=O)N(Cc1ccc(F)cc1)c1ncc(C(=O)NCCCn2ccnc2)s1", "note": "(centres unmarked) [Example 80, 2-{(4-fluorobenzyl)[(1-methoxypropan-2-yl)carbamoyl]amino}-N-[3-(1H-imidazol-1-yl)propyl]-1,3-thiazole-5-carboxamide]", "values": [{"measurement": "pIC50", "setting": "[1]", "value": 5.10}, {"measurement": "pIC50", "setting": "NAMPT", "value": 8.86}]}, {"smiles": "O=C(NCCCn1ccnc1)c1cnc(N(Cc2ccc(F)cc2)C(=O)C[n+]2ccccc2)s1", "note": "[Example 44, 1-{2-[(4-fluorobenzyl)(5-{[3-(1H-imidazol-1-yl)propyl]carbamoyl}-1,3-thiazol-2-yl)amino]-2-oxoethyl}pyridinium]", "values": [{"measurement": "pIC50", "setting": "[1]", "value": "< 5.00"}, {"measurement": "pIC50", "setting": "NAMPT", "value": 8.11}]}, {"smiles": "COCCC(=O)N(CCC(C)C)c1ncc(C(=O)NCCCn2ccnc2)s1", "note": "[Example 150, N-[3-(1H-imidazol-1-yl)propyl]-2-[(3-methoxypropanoyl)(3-methylbutyl)amino]-1,3-thiazole-5-carboxamide]", "values": [{"measurement": "pIC50", "setting": "[1]", "value": 6.60}, {"measurement": "pIC50", "setting": "NAMPT", "value": 9.68}]}, {"smiles": "O=C(NCCCn1ccnc1)c1cnc(N(Cc2ccc(F)cc2)C(=O)CN2CC=CCC2)s1", "note": "[Example 27, 2-[(3,6-dihydropyridin-1(2H)-ylacetyl)(4-fluorobenzyl)amino]-N-[3-(1H-imidazol-1-yl)propyl]-1,3-thiazole-5-carboxamide]", "values": [{"measurement": "pIC50", "setting": "[1]", "value": "< 5.00"}, {"measurement": "pIC50", "setting": "NAMPT", "value": 9.20}]}, {"smiles": "CC(C)CCN(Cc1ccc(Cl)cc1)c1ncc(C(=O)NCCCn2ccnc2)s1", "note": "[Example 59, 2-[(4-chlorobenzyl)(3-methylbutyl)amino]-N-[3-(1H-imidazol-1-yl)propyl]-1,3-thiazole-5-carboxamide]", "values": [{"measurement": "pIC50", "setting": "[1]", "value": "< 5.00"}, {"measurement": "pIC50", "setting": "NAMPT", "value": 6.58}]}, {"smiles": "CCOC(=O)CCNC(=O)N(Cc1ccc(C#N)cc1)c1ncc(C(=O)NCCCn2ccnc2)s1", "note": "[Example 159, ethyl N-[(4-cyanobenzyl)(5-{[3-(1H-imidazol-1-yl)propyl]carbamoyl}-1,3-thiazol-2-yl)carbamoyl]-beta-alaninate]", "values": [{"measurement": "pIC50", "setting": "[1]", "value": 5.08}, {"measurement": "pIC50", "setting": "NAMPT", "value": 6.54}]}, {"smiles": "COCCC(=O)N(CC(=O)N1CCCC1)c1ncc(C(=O)NCCCn2ccnc2)s1", "note": "[Example 202, N-[3-(1H-imidazol-1-yl)propyl]-2-{(3-methoxypropanoyl)[2-oxo-2-(pyrrolidin-1-yl)ethyl]amino}-1,3-thiazole-5-carboxamide]", "values": [{"measurement": "pIC50", "setting": "[1]", "value": 5.30}, {"measurement": "pIC50", "setting": "NAMPT", "value": 9.39}]}, {"smiles": "N#Cc1ccc(CN(C(=O)NC2CC(C(=O)O)C2)c2ncc(C(=O)NCCCn3ccnc3)s2)cc1", "note": "(centres unmarked) [Example 164, 3-{[(4-cyanobenzyl)(5-{[3-(1H-imidazol-1-yl)propyl]carbamoyl}-1,3-thiazol-2-yl)carbamoyl]amino}cyclobutanecarboxylic acid]", "values": [{"measurement": "pIC50", "setting": "[1]", "value": "< 5.00"}, {"measurement": "pIC50", "setting": "NAMPT", "value": 6.23}]}]}
